Test results published in US7179779B1, “Cationic bleach activator with enhanced hydrolytic stability” (North Carolina State University, priority 2006, dated 2007).
Entries after “also recorded” stand apart in the source; their conditions may differ. Where a name gives a salt, the structure may show the parent alone.

Tests used:
[1] = Hydrolysis kinetics of bleach activator storage solutions by HPLC analysis; format: physicochemical; details: 10% solution, pH 5, room temperature
Source text: Because the concentration of hydroxide ion, OH^−, in the cationic bleach activator solution is almost constant by using a buffer (pH 5), the decrease in the concentration of bleach activator can be expressed as equation 1:
[formula] wherein, [C] is the concentration of bleach activator at time t and k is the pseudo first order rate constant of hydrolysis. See M. B. Smith and J. March, March's Advanced Organic Chemistry: Reactions, Mechanisms, and Structure, 5th ed. (New York: Wiley, 2001) 291.
Equation 2 then can be derived from equation 1:
[formula] wherein, C0 and Ct are the concentration of bleach activator at initial time and time t, respectively.
(§1) Aqueous solutions (10% w/w) of cationic bleach activators 3a–3e were prepared using pH 5 buffer solution. A buffer solution of pH 5 was made using sodium acetate (0.1 M)/acetic acid. Each solution was stored in an amber glass bottle at room temperature.
The HPLC (Waters Breeze HPLC system, Waters Corporation, Milford, Mass., United States of America) with a C18 reverse-phase column (Waters Symmetry C18, 5 μm) was used to analyze the hydrolysis behaviors of the cationic bleach activators 3a–3e during storage. On the selected day, a 0.5 mL aliquot was withdrawn from each storage solution of 3a–3e and diluted with 24.5 mL of water. A 10-μL sample of the solution was injected into the HPLC. For the mobile phase, the gradient program using water with 0.005M heptanesulphonic acid as a solvent A and acetonitrile as a solvent B was used (Table 2). The flow rate was 1 mL/min.

[2] = Available oxygen (AvO) of bleach activator storage solutions by modified iodometric titration; format: physicochemical; details: 10% w/w aqueous solution, pH 5 buffer, room temperature storage
Source text: Active or available oxygen (AvO) is a useful parameter for assessing the oxidizing power of hydrogen peroxide or peracids from bleach activators. See American Standard Test Method D 2180–89 (West Conshohocken: ASTM International, 2003); and J. K. Grime, A. D. Clauss and K. A. Leslie, Tenside Surf. Det., 29 (1992) 23. A modified iodometric titration method was used to measure the AvO of the presently disclosed bleach activators. See J. J. Lee, S. Lim, P. Hauser and D. Hinks, Color. Technol., 121 (2005) 37.
as §1
AvO of a bleach activator was measured using a previously described procedure. See J. J. Lee, S. Lim, P. Hauser and D. Hinks, Color. Technol., 121 (2005) 37, the disclosure of which is incorporated herein by reference in its entirety.
On the selected day, the pH value of each storage solution was recorded and a 2 mL aliquot was withdrawn and added to a mixture of deionized water, stabilizer (1 g/L), Na2CO3 (14 g/L) and H2O2 (50% w/w, 0.5 g/L) to make a total volume of 200 mL. Crushed ice (180 g) was added to the sample solution while stirring. Acetic acid (50 mL) and potassium iodide solution (10 mL, 10% w/v) were then added separately. Using 0.025N sodium thiosulfate solution, the sample solution was titrated until it turned colorless. AvO (ppm) of a bleach activator was calculated using Equation 3.
[formula] wherein, Vtotal and VH2O2 are the volume (mL) of Na2S2O3 solution required for the titration of sample and blank respectively.

[3] = Bleaching of cotton fabric with bleach activators, CIE whiteness index measurement; details: stored 10% w/w aqueous solutions, pH 5, bleaching at 70° C. for 50 min
Experimental: On the same day of the AvO measurement, bleaching was carried out with storage solutions of the bleach activators 3a–3e. Two grams of each solution was added to the bleaching solution, which comprised a wetting agent (1 g/L), stabilizer (1 g/L), NaOH (50% w/w, 3 g/L) and H2O2 (50% w/w, 3 g/L). Cotton fabric (10 g) was bleached in a laboratory IR dyeing machine (Ahiba Nuance, Datacolor International, Lawrenceville, N.J., United States of America) at a liquor ratio of 10:1. The temperature was raised to 70° C. at the rate of 4° C./min. After 50 min of bleaching, the bleaching bath was cooled to room temperature. The bleached fabric was rinsed thoroughly in tap water and air-dried.
The CIE Whiteness Index (WI) value was obtained for the bleached fabric using AATCC Test Method 110–1995. See AATCC Technical Manual, vol 75 (Research Triangle Park: American Association of Textile Chemists and colorists, 2000), the disclosure of which is incorporated herein by reference in its entirety.
The whiteness was measured on a UV calibrated Datacolor Spectraflash SF 600X (Datacolor Corporation, Lawrenceville, N.J., United States of America), under illuminant D65 using the 10° standard observer with specular and UV component included. Each sample was folded twice to give an opaque sample with four plies and whiteness was measured four times at different surfaces. The average value of CIE WI was recorded.

[4] = compared with conventional peroxide bleaching; cited from earlier work

melting point [°C] | hydrolytic stability under typical storage conditions [1] | rate of decrease of AvO over storage time [2] | Structure (SMILES) | pseudo first order rate constant of hydrolysis (ranking) [1] | also measured
– | more stable than TBCC | – | CC[N+](CC)(CC)Cc1ccc(C(=O)N2CCCC2=O)cc1 [Compound 3a, N-[4-(triethylammoniomethyl)benzoyl] butyrolactam chloride] | smaller than that of TBCC | –
187 to 189 | – | decreased the fastest | CC[N+](CC)(CC)Cc1ccc(C(=O)N2CCCCC2=O)cc1.[Cl-] [Compound 3b, N-[4-(triethylammoniomethyl)benzoyl] valerolactam chloride] | greatest | rate constant of hydrolysis, times greater than that of 3c or TBCC [1]: two times greater; change of CIE-WI of cotton fabric bleached with stored activator solutions over storage time [3]: decreased fastest
212 to 214 | – | second to that of 3b | CC[N+](CC)(CC)Cc1ccc(C(=O)N2CCCCCC2=O)cc1.[Cl-] [Compound 3c, N-[4-(triethylammoniomethyl)benzoyl] caprolactam chloride] | – | bleaching performance [4]: satisfactory bleaching performance in a shorter time and at lower temperatures than conventional peroxide bleaching

Continued, compound first:

Structure (SMILES) | melting point [°C] | hydrolytic stability under typical storage conditions [1] | rate of decrease of AvO over storage time [2] | pseudo first order rate constant of hydrolysis (ranking) [1] | also measured
CC[N+](CC)(CC)Cc1ccc(C(=O)N2CCCC2=O)cc1 (as salt: chloride) [Compound 3a, N-[4-(triethylammoniomethyl)benzoyl] butyrolactam chloride] | 228 to 230 | – | – | – | –
CC[N+](CC)(CC)Cc1ccc(C(=O)N2CCCCCCC2=O)cc1 (as salt: chloride) [Compound 3d, N-[4-(triethylammoniomethyl)benzoyl] heptalactam chloride] | 194 to 196 | – | – | – | –
CC[N+](CC)(CC)Cc1ccc(C(=O)N2CCCCCCCC2=O)cc1 (as salt: chloride) [Compound 3e, N-[4-(triethylammoniomethyl)benzoyl] octalactam chloride] | 183 to 185 | – | – | – | –
CC[N+](CC)(CC)Cc1ccc(C(=O)N2CCCCCCC2=O)cc1 [Compound 3d, N-[4-(triethylammoniomethyl)benzoyl] heptalactam chloride] | – | more stable than TBCC | – | smaller than that of TBCC | –
CC[N+](CC)(CC)Cc1ccc(C(=O)N2CCCCCCCC2=O)cc1 [Compound 3e, N-[4-(triethylammoniomethyl)benzoyl] octalactam chloride] | – | more stable than TBCC; also recorded: the most stable compound | decreased the slowest | smaller than that of TBCC | rate constant of hydrolysis, times smaller than that of 3a [1]: about 3 times; rate constant of hydrolysis, times smaller than that of TBCC [1]: ~7 times; change of CIE-WI of cotton fabric bleached with stored activator solutions over storage time [3]: decreased slowest
